Patent publication US8318186B2, “Use of at least a fatty ester for preparing a composition designed to inhibit 5-α-reductase activity, in pharmacology, in particular dermatology, in cosmetics and as food additive” (Laboratoires Expanscience, priority 2000, dated 2012)
Values joined by “and” are separate entries in the source; they are usually repeats but may differ in a detail not shown here. Equal values may be shown once. Marks after values point to notes of the source that are not given here.

System: 5α-reductase
Experiment: Fatty acid esters on 5α-reductase activity, conversion of testosterone to 5α-dihydrotestosterone in normal human dermal fibroblast cultures (Example 4)
Format: cell-based
Set-up: key to group by 5α-reductase inhibitory activity: group A with the highest inhibitory activity; group B with an intermediate inhibitory activity
Settings: for inhibition of the 5α-reductase activity: Example 4, p<0.05; for 5α-DHT formed per culture well, mean / 5α-DHT formed per culture well, single well: after 24 of incubation, DMSO 0.1% (v/v); for 5α-DHT formed per culture well, single well: single replicate; for group by 5α-reductase inhibitory activity: tested at 1, 10 and 100 μg/ml
Protocol: The fibroblast culture medium (FCM) consisted of MEM/M199 (3:1, v/v) supplemented with penicillin (50 IU/ml), streptomycin (50 μg/ml), sodium bicarbonate (0.2%, w/v) and FCS (10%, v/v).
The assay system consisted of normal human dermal fibroblasts cultured as a monolayer. The fibroblasts were isolated from a residue from abdominal plastic surgery performed on a person (subject BIOPREDIC No. I0013). The cells were used at the fifth passage; they were cultured until the monolayers were confluent in FCM medium at 37° C. in a humid atmosphere containing 5% CO2.
The fibroblast incubation medium (FIM) consisted of FCM supplemented with tritiated testosterone (1.6×10^−7 M, that is 6.32 μCi/ml) and nonradiolabeled testosterone (3.84×10^−6 M)
The test products and finasteride were taken up in DMSO before being diluted in the incubation medium. […]
The fibroblast cultures were preincubated in the presence of the test products or of the reference product for 2 hours before adding the substrate, testosterone. For this step, the test products and the reference product were prepared in the FCM medium.
After preincubation, the fibroblast cultures were incubated in the presence of the test products or of the reference product prepared in the FIM medium for 22 hours at 37° C. in a humid atmosphere containing 5% CO2. Control cultures were incubated in the FIM medium in the absence of test products and of reference product. […]
Each experimental condition was tested in triplicate.
After the incubation period, the cells were subjected to the action of ultrasound in the FIM medium. The cellular lysates thus obtained were extracted with dichloromethane. After evaporation, the dry residues were taken up in methanol and were deposited on 60F254 silica plates (MERCK, reference 5554).
The migration solvent was a mixture of dichloromethane and ether (7:3, v/v) At the end of the migration, the silica plates were read using a BERTHOLD radioactivity scanner.
The metabolizing of testosterone to 5α-dihydro-testosterone under the various experimental conditions was calculated: the results (areas of the 5α-dihydrotestosterone peaks counted by the BERTHOLD scanner) were expressed in pmol of 5α-dihydro-testosterone formed per culture well. They were also expressed as a percentage of the 5α-reductase activity present in the “DMSO control” group.
The groups of data (control group and treated groups) were treated by a one-way analysis of variance (ANOVA 1, p<0.05), followed by a DUNNETT's test (p<0.05). The effect of the test products and of the reference product was compared with the “DMSO control” group. The effects of the test products were compared to each other by a two-way analysis of variance (ANOVA 2, p<0.05, factor 1=concentration and factor 2=treatment).
The same materials and methods are used as in example 3 above.
It was proposed to evaluate the effect of fatty acid esters on the 5α-reductase activity. An in vitro model of normal human dermal fibroblast cultures was selected. The products tested were chosen from the group of fatty acid esters varying in the length and the functionality of the fatty chain, and the nature of the alkoxy group. These esters are the following: methyl oleate, methyl linoleate, methyl stearate, methyl laurate, methyl undecylenate, butyl oleate, oleyl oleate and methyl ricinoleate.

Row | SMILES | 5α-reductase activity as percentage of the “DMSO 0.1% (v/v)” group (1 μg/ml) | inhibition of the 5α-reductase activity (1 μg/ml) | 5α-DHT formed per culture well, mean (1 μg/ml) | 5α-DHT formed per culture well, single well (1 μg/ml) | 5α-reductase activity as percentage of the “DMSO 0.1% (v/v)” group (10 μg/ml) | inhibition of the 5α-reductase activity (10 μg/ml) | 5α-DHT formed per culture well, mean (10 μg/ml) | 5α-DHT formed per culture well, single well (10 μg/ml) | 5α-reductase activity as percentage of the “DMSO 0.1% (v/v)” group (100 μg/ml) | inhibition of the 5α-reductase activity (100 μg/ml) | 5α-DHT formed per culture well, mean (100 μg/ml) | 5α-DHT formed per culture well, single well (100 μg/ml) | group by 5α-reductase inhibitory activity
1 | CCCCCCCC/C=C\CCCCCCCC(=O)OCCCC [Butyl oleate, butyl oleate] | 79 percentage of the “DMSO 0.1% (v/v)” group | 21% | 9.00* +/− pmol of 5α-DHT formed/culture well | 10.64 pmol of 5α-DHT formed/culture well and 8.28 pmol of 5α-DHT formed/culture well and 8.08 pmol of 5α-DHT formed/culture well | 55 percentage of the “DMSO 0.1% (v/v)” group | 45% | 6.21* +/− pmol of 5α-DHT formed/culture well | 6.24 pmol of 5α-DHT formed/culture well and 5.04 pmol of 5α-DHT formed/culture well and 7.36 pmol of 5α-DHT formed/culture well | 51 percentage of the “DMSO 0.1% (v/v)” group | 49% | 5.77* +/− pmol of 5α-DHT formed/culture well | 5.20 pmol of 5α-DHT formed/culture well and 6.72 pmol of 5α-DHT formed/culture well and 5.40 pmol of 5α-DHT formed/culture well | A
2 | CCCCCCCCCCCC(=O)OC [Methyl laurate, methyl laurate] | 57 percentage of the “DMSO 0.1% (v/v)” group | – | 6.49* +/− pmol of 5α-DHT formed/culture well | 5.76 pmol of 5α-DHT formed/culture well and 6.88 pmol of 5α-DHT formed/culture well and 6.84 pmol of 5α-DHT formed/culture well | 77 percentage of the “DMSO 0.1% (v/v)” group | – | 8.75 pmol of 5α-DHT formed/culture well | 6.84 pmol of 5α-DHT formed/culture well and 9.88 pmol of 5α-DHT formed/culture well and 9.52 pmol of 5α-DHT formed/culture well | 86 percentage of the “DMSO 0.1% (v/v)” group | – | 9.80 pmol of 5α-DHT formed/culture well | 8.48 pmol of 5α-DHT formed/culture well and 11.96 pmol of 5α-DHT formed/culture well and 8.96 pmol of 5α-DHT formed/culture well | B
3 | CCCCCCCCCCCCCCCCCC(=O)OC [Methyl stearate, methyl stearate] | 59 percentage of the “DMSO 0.1% (v/v)” group | 41% | 6.69* +/− pmol of 5α-DHT formed/culture well | 6.92 pmol of 5α-DHT formed/culture well and 6.08 pmol of 5α-DHT formed/culture well and 7.08 pmol of 5α-DHT formed/culture well | 65 percentage of the “DMSO 0.1% (v/v)” group | 35% | 7.43* +/− pmol of 5α-DHT formed/culture well | 8.80 pmol of 5α-DHT formed/culture well and 6.72 pmol of 5α-DHT formed/culture well and 6.76 pmol of 5α-DHT formed/culture well | 57 percentage of the “DMSO 0.1% (v/v)” group | 43% | 6.52* +/− pmol of 5α-DHT formed/culture well | 6.88 pmol of 5α-DHT formed/culture well and 5.92 pmol of 5α-DHT formed/culture well and 6.76 pmol of 5α-DHT formed/culture well | B
4 | CCCCC/C=C\C/C=C\CCCCCCCC(=O)OC [Methyl linoleate, methyl linoleate] | 58 percentage of the “DMSO 0.1% (v/v)” group | 42% | 6.60* +/− pmol of 5α-DHT formed/culture well | 7.04 pmol of 5α-DHT formed/culture well and 6.40 pmol of 5α-DHT formed/culture well and 6.36 pmol of 5α-DHT formed/culture well | 60 percentage of the “DMSO 0.1% (v/v)” group | 40% | 6.87* +/− pmol of 5α-DHT formed/culture well | 6.00 pmol of 5α-DHT formed/culture well and 6.60 pmol of 5α-DHT formed/culture well and 8.00 pmol of 5α-DHT formed/culture well | 71 percentage of the “DMSO 0.1% (v/v)” group | 29% | 8.05* +/− pmol of 5α-DHT formed/culture well | 8.56 pmol of 5α-DHT formed/culture well and 8.04 pmol of 5α-DHT formed/culture well and 7.56 pmol of 5α-DHT formed/culture well | B
5 | CCCCCC[C@@H](O)C/C=C\CCCCCCCC(=O)OC [Methyl ricinoleate, methyl ricinoleate] | 63 percentage of the “DMSO 0.1% (v/v)” group | 37% | 7.19* +/− pmol of 5α-DHT formed/culture well | 6.52 pmol of 5α-DHT formed/culture well and 8.36 pmol of 5α-DHT formed/culture well and 6.68 pmol of 5α-DHT formed/culture well | 62 percentage of the “DMSO 0.1% (v/v)” group | 38% | 7.04* +/− pmol of 5α-DHT formed/culture well | 7.84 pmol of 5α-DHT formed/culture well and 7.40 pmol of 5α-DHT formed/culture well and 5.88 pmol of 5α-DHT formed/culture well | 38 percentage of the “DMSO 0.1% (v/v)” group | 62% | 4.33* +/− pmol of 5α-DHT formed/culture well | 3.68 pmol of 5α-DHT formed/culture well and 4.52 pmol of 5α-DHT formed/culture well and 4.80 pmol of 5α-DHT formed/culture well | A
